Assay: solubility of LiH in THF
Details: room temperature

## [H-].[Li+] [LiH, lithium hydride]
  solubility of LiH in THF: less than 0.00089 mol per liter

Source: patent US6268537A, “Method of synthesis of lithium substituted borohydride reagents and method of synthesis of reactive lithium hydride” (priority 1999, dated 2001)
